Earlier results in US9333174B2, “Use of simple amino acids to form porous particles” (Civitas Therapeutics, Inc., priority 1999, dated 2016).

Details: hydrophobicity scale on which glycine has the value 0.5; value of the amino acid itself

| Structure (SMILES) | hydrophobicity |
| --- | --- |
| N[C@@H](CCC(=O)O)C(=O)O [Glutamate] | 0.043 |
| CC[C@H](C)[C@H](N)C(=O)O [Isoleucine] | 0.943 |
| N[C@@H](Cc1ccccc1)C(=O)O [Phenylalanine] | 0.501 |
| NCC(=O)O [glycine] | 0.5 |
